One test has as its target T1, eEF2K (Homo sapiens, UniProt O00418).
T1 construct: in the immortalized epithelial breast cell lines, MCF10A; host or cells: MCF10A immortalized breast epithelial cells
T1 sequence (O00418 1-725): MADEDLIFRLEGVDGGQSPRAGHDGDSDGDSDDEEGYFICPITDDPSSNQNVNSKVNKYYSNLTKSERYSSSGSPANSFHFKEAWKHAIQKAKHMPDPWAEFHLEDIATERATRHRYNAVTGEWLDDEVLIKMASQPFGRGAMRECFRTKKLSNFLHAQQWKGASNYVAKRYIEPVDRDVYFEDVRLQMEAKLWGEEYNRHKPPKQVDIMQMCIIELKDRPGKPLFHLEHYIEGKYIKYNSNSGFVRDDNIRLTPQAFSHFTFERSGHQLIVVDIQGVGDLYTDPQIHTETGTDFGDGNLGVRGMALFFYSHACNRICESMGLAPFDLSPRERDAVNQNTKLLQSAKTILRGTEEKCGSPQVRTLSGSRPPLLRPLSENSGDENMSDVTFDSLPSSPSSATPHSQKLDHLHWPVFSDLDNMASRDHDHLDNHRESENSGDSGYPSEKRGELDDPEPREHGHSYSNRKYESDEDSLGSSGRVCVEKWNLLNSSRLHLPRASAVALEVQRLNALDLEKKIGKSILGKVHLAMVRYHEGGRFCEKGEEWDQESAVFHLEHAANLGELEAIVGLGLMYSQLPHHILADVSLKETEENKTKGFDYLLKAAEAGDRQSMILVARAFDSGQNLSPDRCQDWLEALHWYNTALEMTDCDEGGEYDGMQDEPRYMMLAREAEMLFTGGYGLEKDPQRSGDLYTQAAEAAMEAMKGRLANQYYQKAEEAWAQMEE
The test can be described thus: EF2K cell-based assay (P-EF2 AlphaLISA, 2-deoxyglucose stimulated MCF10A cells). The conditions noted are these: 2.5 mM 2-deoxyglucose 4 h, phosphorylation of EF2 at Thr 56, pIC50 = -log IC50 (M), read-out: eEF2K_C_PThr56 pIC50 (converted). Here is the method:
In this assay, 2.5 mM 2-deoxyglucose was used to deplete intracellular ATP and activate 5′ adenosine monophosphate-activated protein kinase (AMPK) in the immortalized epithelial breast cell lines, MCF10A. MCF 10A cells were purchased from ATCC (CRL-10317).
MCF10A cells are seeded at a density of 1.25×10^5 Cells/ml at 100 μl/well in a 96-well plate and incubated for 24 hours (37° C., 5% CO2). Compound is added for 1 hour, and cell are stimulated with 2.5 mM of 2-deoxy-glucose for 4 hours. Medium is then removed, and cells are lysed in an ice-cold buffer M-PER (Thermo Scientific, 78501), containing protease and phosphatase inhibitors. P-EF2 levels are determined in these lysates using the P-EF2 AlphaLISA described above.

The target in a further test is T2, EF2K (Homo sapiens, UniProt O00418).
T2 construct: host or cells: LN-229 glioblastoma cell lysate
T2 sequence (O00418 1-725): T1 sequence (O00418 1-725)
Briefly: Biochemical EF2K lysate-based kinase assay (AlphaLISA p-eEF2 Thr56). To be noted: LN-229 cell lysates, 10 mM ATP, pH 6.6; pIC50 = -log IC50 (M); read-out: eEF2K_C_alphalisa pIC50 (converted). The text has this:
LN-229 cells were purchased from ATCC (CRL-2611); these are glioblastoma cells. Cell lysates from LN229 were used in this kinase assay to provide both the kinase and the substrate (EF2). The AlphaLISA p-eEF2 (Thr56) detection assay was developed using a sandwich assay format with two specific antibodies recognizing different epitopes of the target, including one antibody against the phosphorylation site of interest. One anti-eEF2 antibody was conjugated onto AlphaLISA Acceptor beads, while the second antibody was biotinylated and captured by streptavidin coated Donor beads.
Compound was mixed with LN-229 cell lysates in the presence of a kinase buffer (e.g. HEPES) at a pH of 6.6, containing 10 mM Mg^2+ (e.g. magnesium acetate) and 10 mM adenosine-tri-phosphate (ATP) and incubated at room temperature for 15 minutes. The kinase reaction was stopped with excess ethylenediaminetetraacetic acid disodium salt and the biotinylated-anti phospho eEF2 antibody (3 nM) was added for 1 hour. Then the anti-EF2 acceptor beads (10 μg/ml) as well as the streptavidin coated donor beads (20 μg/ml) were added for 1 hour, and the AlphaLISA signal was measured in an Envision instrument once, left overnight, and measured again for the final read.

In another test the target is PIK3C3 lipid kinase (Homo sapiens, UniProt Q8NEB9). The test can be described thus: Biochemical Vps34 lipid kinase assay (ADP-Glo). The conditions noted are these: 20 μM ATP; for IC50: serial dilution 10 μM to 0.3 nM, pIC50 = -log IC50 (M); for remaining activity at 1 µM: 1 h, single dose 1 μM, residual activity compared to control (DMSO), read-out: VPS34_1microM_%ofcntrl. On the procedure: A non-radiometric kinase assay (ADP-Glo™ Assay, Promega, Madison, Wi, USA) was used for measuring the kinase activity of the PIK3C3 lipid kinase. All kinase assays were performed in 96-well half-area microtiter plates in a 25 μl reaction volume. The reaction cocktail was pipetted in 3 steps in the following order: • 10 μl of ATP solution (in assay buffer, see below) • 5 μl of test sample in 5% DMSO 10 μl of enzyme/substrate mixture
PIK3C3 lipid kinase, sequence (Q8NEB9 whole entry): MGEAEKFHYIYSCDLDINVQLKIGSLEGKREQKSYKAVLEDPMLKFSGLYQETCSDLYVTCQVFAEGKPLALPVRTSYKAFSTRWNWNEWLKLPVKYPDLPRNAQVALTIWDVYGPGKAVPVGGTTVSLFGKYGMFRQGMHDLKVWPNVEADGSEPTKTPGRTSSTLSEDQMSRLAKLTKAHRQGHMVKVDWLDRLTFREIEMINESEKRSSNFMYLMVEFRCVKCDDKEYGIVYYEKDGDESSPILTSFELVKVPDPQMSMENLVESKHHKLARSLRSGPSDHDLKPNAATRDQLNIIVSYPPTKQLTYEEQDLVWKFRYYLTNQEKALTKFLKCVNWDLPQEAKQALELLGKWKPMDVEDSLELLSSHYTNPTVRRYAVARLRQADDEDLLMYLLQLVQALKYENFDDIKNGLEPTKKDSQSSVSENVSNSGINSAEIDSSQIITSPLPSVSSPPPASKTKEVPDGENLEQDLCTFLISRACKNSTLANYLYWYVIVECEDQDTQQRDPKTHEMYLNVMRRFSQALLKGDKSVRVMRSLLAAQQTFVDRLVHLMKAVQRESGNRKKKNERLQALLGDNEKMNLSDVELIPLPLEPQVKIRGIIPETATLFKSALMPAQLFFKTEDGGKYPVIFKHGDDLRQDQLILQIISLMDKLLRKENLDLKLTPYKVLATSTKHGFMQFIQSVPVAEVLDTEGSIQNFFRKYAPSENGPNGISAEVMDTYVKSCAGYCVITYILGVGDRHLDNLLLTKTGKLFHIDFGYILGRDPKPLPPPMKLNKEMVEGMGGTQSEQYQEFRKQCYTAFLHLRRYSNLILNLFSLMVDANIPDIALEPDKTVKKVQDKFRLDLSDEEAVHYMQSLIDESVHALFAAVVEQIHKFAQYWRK
All lipid kinase assays contained 50 mM HEPES (4-(2-hydroxyethyl)-1-piperazineethanesulfonic acid)—NaOH, pH 7.5, 1 mM EGTA ((ethylene glycol tetraacetic acid), 100 mM NaCl, 0.03% CHAPS (3-[(3-Cholamidopropyl) dimethylammonio]-1-propanesulfonate), 2 mM DTT (Dithiothreitol), 20 μM ATP (corresponding to the apparent ATP-Km), kinase (7.6 nM) and substrate (50 μM). The assay for PIK3C3 additionally contained 3 mM MnCl2.
The reaction cocktails were incubated at 30° C. for 60 minutes. The reaction was stopped with 25 μl ADP-Glo™ reagent per well. Plates were incubated for 40 minutes at room temperature, followed by addition of 50 μl kinase detection reagent per well and incubation for 60 minutes at room temperature. Signal was determined with a microplate luminescence reader (Victor, Perkin Elmer). The assay was either performed using a single dose of compound (1 μM final concentration in the assay reaction) with resulting data expressed as residual activity compared to control (DMSO), or using a serial (half-log) dilution of compounds starting at 10 μM and down to 0.3 nM (final concentrations in the assay) with data expressed as the pIC50.

Take `O=C1CN2CCN(Cc3cccc(c3)Nc3cc(ccn3)-c3cnc(nc3)N3CCCC3CCN1)C(CO)C2` (stereo not drawn) [Compound 46]: the IC50 on eEF2K is 6.46e-07 M; on EF2K it was 1.32e-08 M; against PIK3C3 lipid kinase, 2.34e-06 M.
As for `O=C1CN2CCN(CC2)Cc2cccc(c2)Nc2cc(ccn2)-c2cnc(nc2)N2CC(O)CC2CCN1` (stereo not drawn) [Compound 55], the IC50 at eEF2K is 7.76e-07 M; at EF2K, 8.51e-09 M; against PIK3C3 lipid kinase it was 5.5e-07 M. Further, at PIK3C3 lipid kinase, the remaining activity at 1 µM came to 29.6%.
In the case of `O=C1NCCC2CC(O)CN2c2ncc(cn2)-c2ccnc(c2)Nc2cccc(c2F)CN2CCN(CC2)C12CC2` (stereo not drawn) [Compound 53], the IC50 on eEF2K is 8.51e-08 M; at EF2K, 4.07e-09 M; against PIK3C3 lipid kinase, 1.78e-07 M.
With `O=C1CN2CC3CCC(C2)N3Cc2cccc(c2)Nc2cc(ccn2)-c2cnc(nc2)NCCCN1` [Compound 41], the IC50 is 1.7e-06 M at eEF2K, 1.05e-07 M on EF2K and 7.41e-07 M at PIK3C3 lipid kinase. Moreover, the remaining activity at 1 µM at PIK3C3 lipid kinase was determined as 23.3%.
On to `O=C1NCCC2CC(O)CN2c2ncc(cn2)-c2ccnc(c2)Nc2cccc(c2)CN2CCN(CC2)C12CC2` (stereo not drawn) [Compound 57], for which the IC50 at eEF2K is 3.09e-07 M; on EF2K it was 1.02e-08 M; on PIK3C3 lipid kinase, 5.01e-06 M.
With `CC1(C)c2cccc(c2)Nc2cc(ccn2)-c2cnc(nc2)NCCCNC(=O)CN2CCN1CC2` [Compound 74], the results for the IC50 on eEF2K and on EF2K were 1.51e-06 M and 1.2e-07 M, respectively. The remaining activity at 1 µM at PIK3C3 lipid kinase was found to be 70.1%.
The matching figures for `O=C1CN2CCN(CC2)Cc2cccc(c2)Nc2cc(ccn2)-c2cnc(cn2)NCCCN1` [Compound 39]: 1.23e-05 M, 2.75e-07 M and 45.7%.
The matching figures for `O=C1CC2CCNC(=O)CN3CCN(CC3)Cc3cccc(c3)Nc3cc(ccn3)-c3cnc(nc3)N2C1` (stereo not drawn) [Compound 88]: 4.57e-07 M, 6.46e-08 M and 66.5%.
On the same counts, the results for `CNC(=O)C1CCNC(=O)CN2CCN(CC2)Cc2cccc(c2)Nc2cc(ccn2)-c2cnc(nc2)N1` (stereo not drawn) [Compound 122] are 1.41e-05 M, 1.91e-05 M and 39.5%.
`COC(=O)C1CCNC(=O)CN2CCN(CC2)Cc2cccc(c2)Nc2cc(ccn2)-c2cnc(nc2)N1` (stereo not drawn) [Compound 116]: the IC50 on eEF2K is 1.91e-05 M; on EF2K, 2.69e-06 M. The remaining activity at 1 µM at PIK3C3 lipid kinase came to 33.5%.
In the case of `O=C1CN2CC3CCC2CN3Cc2cccc(c2)Nc2cc(ccn2)-c2cnc(nc2)NCCCN1` (single isomer, unassigned) [Compound 25], the IC50 is over 1e-05 M on eEF2K, 2.34e-06 M at EF2K and 6.03e-07 M on PIK3C3 lipid kinase.
In the case of `O=C1CN2CCN(CC2)Cc2cccc(c2)Nc2cc(ccn2)-c2cnc(nc2)NCCS(=O)(=O)N1` [Compound 126], the IC50 on eEF2K is over 3.02e-05 M; at EF2K, 2.82e-07 M. Besides, the remaining activity at 1 µM at PIK3C3 lipid kinase amounted to 52.7%.
In the case of `CC1(C)CN2CCN1Cc1cccc(c1)Nc1cc(ccn1)-c1cnc(nc1)NCCCNC(=O)C2` [Compound 19], the IC50 was 7.08e-07 M at eEF2K, 3.39e-08 M on EF2K and 2.88e-07 M against PIK3C3 lipid kinase.
As to `CC1c2cccc(c2)Nc2cc(ccn2)-c2cnc(nc2)N2CC(O)CC2CCNC(=O)C2(CC2)N2CCN1CC2` (single isomer, unassigned) [Compound 66], the IC50 was 9.12e-07 M on eEF2K, 6.17e-08 M at EF2K and 1.12e-06 M on PIK3C3 lipid kinase.
Regarding `CC1CN2CC(=O)NCCCNc3ncc(cn3)-c3ccnc(c3)Nc3cccc(c3)CN1C(C)C2` (stereo not drawn) [Compound 34], the IC50 on eEF2K is about 2.63e-06 M; at EF2K, 3.31e-07 M; against PIK3C3 lipid kinase, 3.63e-07 M. Moreover, the remaining activity at 1 µM at PIK3C3 lipid kinase was determined as 23.5%.
`CN1CCCNc2ncc(cn2)-c2ccnc(c2)Nc2cccc(c2)CN2CCN(CC2)CC1=O` [Compound 13]: the IC50 at eEF2K is 9.12e-06 M; at EF2K it was 6.46e-07 M. For the same molecule, the remaining activity at 1 µM on PIK3C3 lipid kinase was found to be 34.9%.

These data come from patent US20170022201A1, “MACROCYLIC PYRIDINE DERIVATIVES” (Janssen Pharmaceutica NV, priority 2014, published 2017).
